According to ChEMBL document CHEMBL1201862, “PubChem BioAssay data set” (2004):
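Five concentrations, 48 hours, 96-well plates. GI50 = concentration required for 50% inhibition of growth.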 Activity calls are given as the source filed them. Rule as the data show it: active = GI50 up to about 1.1 µM and inactive = higher.

Tests used:
Test in all cases: growth of human tumour cells (NCI), 48 h
786-0 = system: 786-0
MDA-MB-435 = system: MDA-MB-435
RPMI-8226 = system: RPMI-8226
HCT-15 = system: HCT-15
A498 = system: A498
RXF 393 = system: RXF 393
NCI-H226 = system: NCI-H226
TK-10 = system: TK-10
HT-29 = system: HT-29
SR = system: SR
COLO 205 = system: COLO 205
HOP-92 = system: HOP-92
SNB-75 = system: SNB-75
MCF7 = system: MCF7
Malme-3M = system: Malme-3M
OVCAR-3 = system: OVCAR-3
SK-OV-3 = system: SK-OV-3
OVCAR-4 = system: OVCAR-4
HL-60 = system: HL-60
T47D = system: T47D

Structure (SMILES) | GI50 (786-0) | GI50 (MDA-MB-435) | GI50 (RPMI-8226) | GI50 (HCT-15) | GI50 (A498) | GI50 (RXF 393) | GI50 (NCI-H226) | GI50 (TK-10) | GI50 (HT-29) | GI50 (SR) | GI50 (COLO 205) | GI50 (HOP-92) | GI50 (SNB-75) | GI50 (MCF7) | GI50 (Malme-3M) | GI50 (OVCAR-3) | GI50 (SK-OV-3) | GI50 (OVCAR-4) | GI50 (HL-60) | GI50 (T47D)
Cc1csc(NC23CC4CC(CC(C4)C2)C3)[n+]1C(P(=O)([O-])O)P(=O)(O)O (stereo unspecified) | > 100 µM (inactive) | > 100 µM (inactive) | > 100 µM (inactive) | > 100 µM | > 100 µM (inactive) | > 100 µM (inactive) | > 100 µM (inactive) | > 100 µM (inactive) | > 100 µM (inactive) | > 100 µM (inactive) | > 100 µM (inactive) | > 100 µM (inactive) | > 100 µM (inactive) | > 100 µM (inactive) | > 100 µM (inactive) | > 100 µM (inactive) | > 100 µM (inactive) | – | – | –
CC(N)Cc1ccc(Cl)cc1 (stereo unspecified) | > 100 µM (inactive) | – | > 100 µM (inactive) | 51.6 µM | > 100 µM (inactive) | > 100 µM (inactive) | > 100 µM (inactive) | > 100 µM (inactive) | 50.8 µM (inactive) | > 100 µM (inactive) | > 100 µM (inactive) | 50.8 µM (inactive) | > 100 µM (inactive) | – | > 100 µM (inactive) | > 100 µM (inactive) | > 100 µM (inactive) | > 100 µM (inactive) | 37.6 µM (inactive) | –
O=c1[nH]nc(NCCc2ccccc2)c2nnn(Cc3ccccc3)c12 | > 100 µM (inactive) | > 100 µM (inactive) | > 100 µM (inactive) | > 100 µM | – | > 100 µM (inactive) | – | > 100 µM (inactive) | > 100 µM (inactive) | > 100 µM (inactive) | > 100 µM (inactive) | – | > 100 µM (inactive) | > 100 µM (inactive) | > 100 µM (inactive) | > 100 µM (inactive) | – | > 100 µM (inactive) | > 100 µM (inactive) | –
Nc1ccc(Nc2c3ccccc3nc3ccccc23)cc1 | 3.1 µM (inactive) | 5.51 µM (inactive) | 4.49 µM (inactive) | 2.84 µM | – | > 10 µM (inactive) | 1.38 µM (inactive) | 5.98 µM (inactive) | 3.49 µM (inactive) | > 10 µM (inactive) | 3.78 µM (inactive) | – | – | 2.2 µM (inactive) | 2.98 µM (inactive) | 3.89 µM (inactive) | 5.5 µM (inactive) | 3.83 µM (inactive) | 1.8 µM (inactive) | 6.49 µM (inactive)
Clc1ccc(OCc2nnc(CCCCCCCCc3nnc(COc4ccc(Cl)cc4)n3Nc3ccccc3)n2Nc2ccccc2)cc1 | 15.3 µM (inactive) | 2.22 µM (inactive) | 0.21 µM (active) | 4.06 µM | 62.5 µM (inactive) | 21.8 µM (inactive) | 9.62 µM (inactive) | 23.7 µM (inactive) | 5.24 µM (inactive) | – | 0.318 µM (active) | 21.4 µM (inactive) | 52.4 µM (inactive) | 3.75 µM (inactive) | 12.5 µM (inactive) | 14.2 µM (inactive) | 17.1 µM (inactive) | 15.7 µM (inactive) | – | 22.1 µM (inactive)
O=C1C=CC2(CCCCCCC2=O)CC1 (stereo unspecified) | > 100 µM (inactive) | – | > 100 µM (inactive) | > 100 µM | > 100 µM (inactive) | > 100 µM (inactive) | 42.6 µM (inactive) | > 100 µM (inactive) | > 100 µM (inactive) | > 100 µM (inactive) | 57 µM (inactive) | > 100 µM (inactive) | 57.9 µM (inactive) | – | > 100 µM (inactive) | > 100 µM (inactive) | > 100 µM (inactive) | > 100 µM (inactive) | > 100 µM (inactive) | –
COC(=O)c1c(C)cccc1/C=C1\Cc2cc(C)cc(C)c2C1=O | 16.3 µM (inactive) | – | > 100 µM (inactive) | > 100 µM | 51.2 µM (inactive) | 20.7 µM (inactive) | 56.5 µM (inactive) | 27.2 µM (inactive) | 89.5 µM (inactive) | > 100 µM (inactive) | – | 17.9 µM (inactive) | 12.9 µM (inactive) | 25.8 µM (inactive) | > 100 µM (inactive) | 50.6 µM (inactive) | – | 9.75 µM (inactive) | > 100 µM (inactive) | 31.7 µM (inactive)
COc1cc2c(cc1OC)[C@H](C)N1CCc3cc(OC)c(OC)cc3[C@@H]1C2 | > 100 µM (inactive) | > 100 µM (inactive) | > 100 µM (inactive) | > 100 µM | > 100 µM (inactive) | – | > 100 µM (inactive) | > 100 µM (inactive) | > 100 µM (inactive) | – | > 100 µM (inactive) | > 100 µM (inactive) | > 100 µM (inactive) | > 100 µM (inactive) | > 100 µM (inactive) | > 100 µM (inactive) | > 100 µM (inactive) | > 100 µM (inactive) | > 100 µM (inactive) | > 100 µM (inactive)
C=C(C)[C@H]1CC(=O)[C@@]2(C)C[C@H]3O[C@]3(C)CC/C=C(\C)CC[C@H]12 | 62.8 µM (inactive) | 43.8 µM (inactive) | 33.4 µM (inactive) | 47.2 µM | 36.1 µM (inactive) | 33.8 µM (inactive) | 31.7 µM (inactive) | 22.2 µM (inactive) | 34.1 µM (inactive) | – | 20.8 µM (inactive) | 64.1 µM (inactive) | 58.3 µM (inactive) | 24.8 µM (inactive) | 44.6 µM (inactive) | 29.9 µM (inactive) | 63.2 µM (inactive) | 42.1 µM (inactive) | 21.6 µM (inactive) | 38.4 µM (inactive)
O=C(O)/C=C/C(=O)N1C/C(=C\c2ccccc2)C(=O)/C(=C/c2ccccc2)C1 | 3.3 µM (inactive) | – | 1.78 µM (inactive) | 6.73 µM | 20.1 µM (inactive) | 5.05 µM (inactive) | 12.4 µM (inactive) | 10.3 µM (inactive) | 7.76 µM (inactive) | 3.72 µM (inactive) | 10.2 µM (inactive) | 19.9 µM (inactive) | 9.84 µM (inactive) | 4.73 µM (inactive) | 4.72 µM (inactive) | 7.26 µM (inactive) | 21.3 µM (inactive) | 7.43 µM (inactive) | 7.96 µM (inactive) | –
CC[C@]1(Cc2ccc(OC)c(OC)c2)[C@@H]2C[C@@H](C3OCCO3)ON2O[C@H](OC2CCCC2(c2ccccc2)c2ccccc2)[C@@H]1OC(C)=O (stereo partly specified) | 20 µM (inactive) | 21.5 µM (inactive) | – | 14.5 µM | – | – | 20.6 µM (inactive) | 45.3 µM (inactive) | 23.5 µM (inactive) | 16.1 µM (inactive) | 26.9 µM (inactive) | – | 24 µM (inactive) | 22.5 µM (inactive) | – | 12.7 µM (inactive) | 43.1 µM (inactive) | – | – | 18.7 µM (inactive)
Cc1cc(C2(O)C=C(C(C)(C)C)C(=O)C(C(C)(C)C)=C2)c(C)cc1C1(O)C=C(C(C)(C)C)C(=O)C(C(C)(C)C)=C1 | > 100 µM (inactive) | – | > 100 µM (inactive) | > 100 µM | – | – | > 100 µM (inactive) | > 100 µM (inactive) | > 100 µM (inactive) | 17.2 µM (inactive) | > 100 µM (inactive) | – | > 100 µM (inactive) | > 100 µM (inactive) | > 100 µM (inactive) | – | > 100 µM (inactive) | > 100 µM (inactive) | > 100 µM (inactive) | > 100 µM (inactive)
O=C(O)CC1NC(/C(=C/c2ccccc2O)NC(=O)c2ccccc2)OC1=O (stereo unspecified) | 30.3 µM (inactive) | 9.29 µM (inactive) | > 100 µM (inactive) | 30 µM | > 75 µM (inactive) | 29 µM (inactive) | 17 µM (inactive) | 61 µM (inactive) | > 96.6 µM (inactive) | – | > 100 µM (inactive) | 28.7 µM (inactive) | 7.21 µM (inactive) | 3.97 µM (inactive) | 55.7 µM (inactive) | > 33.5 µM (inactive) | 23 µM (inactive) | 7.59 µM (inactive) | > 43.9 µM (inactive) | 11.7 µM (inactive)
O=Cc1cn(CCCCCCCCCCCCn2cc(C=O)c3ccccc32)c2ccccc12 | > 100 µM (inactive) | 5.22 µM (inactive) | – | > 100 µM | 61 µM (inactive) | > 100 µM (inactive) | 57.3 µM (inactive) | > 100 µM (inactive) | > 100 µM (inactive) | 11.7 µM (inactive) | > 100 µM (inactive) | > 100 µM (inactive) | – | 2.62 µM (inactive) | > 100 µM (inactive) | > 100 µM (inactive) | > 100 µM (inactive) | – | 1.56 µM (inactive) | –
C[N+](C)(C)CCOP(=O)([O-])OCCNC(=O)c1ccc2ccccc2c1 | > 100 µM (inactive) | > 100 µM (inactive) | > 100 µM (inactive) | > 100 µM | – | > 100 µM (inactive) | > 100 µM (inactive) | > 100 µM (inactive) | > 100 µM (inactive) | > 100 µM (inactive) | > 100 µM (inactive) | – | > 100 µM (inactive) | > 100 µM (inactive) | > 100 µM (inactive) | > 100 µM (inactive) | > 100 µM (inactive) | – | > 100 µM (inactive) | > 100 µM (inactive)
C/C(=N\NC1=NCCN1)c1cn(C2=NCCN2)nc1C | > 100 µM (inactive) | > 100 µM (inactive) | > 100 µM (inactive) | > 100 µM | > 100 µM (inactive) | 72.1 µM (inactive) | > 100 µM (inactive) | > 100 µM (inactive) | > 100 µM (inactive) | – | > 100 µM (inactive) | 97.1 µM (inactive) | 77.6 µM (inactive) | > 100 µM (inactive) | > 100 µM (inactive) | > 100 µM (inactive) | > 100 µM (inactive) | > 100 µM (inactive) | – | > 100 µM (inactive)
